Each structure is given as a SMILES string.

The test system of this test is H1N1 flu. Nature of the test: Clinical Trial 6, influenza patient (H1N1 flu). Particulars: person; Tamiflu taken for a week. It counts as in vivo. From the text: They were a patient taking Tamiflu against symptoms of H1N1 flu and taking it for a week.

In the case of `CCOC(=O)C1=C[C@@H](OC(CC)CC)[C@H](NC(C)=O)[C@@H](N)C1` [Tamiflu], the “improvement of symptoms of H1N1 flu” value is listed as “minimal”.

Values taken from patent US10959450B2, “Food composition for relieving symptoms of allergic and autoimmune diseases” (priority 2017, dated 2021).
